Data reported in patent publication US20140335154A1, “METHODS AND FORMULATIONS TO ACHIEVE TUMOR TARGETED DOUBLE STRANDED RNA MEDIATED CELL DEATH” (MULTICELL IMMUNOTHERAPEUTICS, INC., priority 2013, published 2014).
Read-outs that look alike come from different tables or passages of the source.

What was measured:
THP-1 cells [1] = test: Cytokine production in THP-1 cells (ELISA / Bio-Plex); assay type: cell-based, human
Method: (§1) Analysis of Cytokines Release: Cells were plated into 96-well plate with the density of 2×10^4 cells/well, cultured and were allowed to become subconfluent. After changing to fresh medium, the cells were treated with 5 bp pA:pU with analogues of 5 bp pA:pU, 70 bp pA:pU, analogues 70 bp pA:pU, or control Poly(A:U) and Poly(I:C) at the final concentration of 100 μg/ml. Cells without treatment were the negative control and cells treated with 1 μg/ml LPS were the positive control. After incubation, the supernatants were collected, centrifuged and then put at −80° C. immediately. Select cytokines, such as IL-6, IL-12(p70), IFN-α2, Tumor Necrosis Factor-α (TNF-α), TNF-related apoptosis-inducing ligand (TRAIL), were analyzed by Bio-Plex Assay kits.
(§2) Experiments carried out in vitro compare low molecular weight dsRNAs (<15 bps) with high molecular weight dsRNAs (>70 bps). Data generated with dsRNA of similar size and chemical composition obtained by fractionation, indicate that low molecular weight dsRNAs (<15 bps) have substantial TNFalpha and cell death inducing properties in human monocytic THP-1 cells. […] The pro-inflammatory effect of low molecular weight dsrnas is evaluated by measuring cytokine production using elisa (r&d systems) in FIG. 3a as well as in FIG. 3b. cell proliferation, death, and apoptosis are measured by Ethidium bromide (EB), PI and YoPro staining (in FIG. 1), Fluorescence-Activated Cell Sorting (FACS) analysis and mtt assay, Annexin V and PI staining analyzed by flow cytometry (in FIGS. 3A, 3B, 4A, 4B, 4C, 5A and 5B).

[2] = system: human HCC cell line PLC/PRC/5 and human HCC cell line Huh7; test: Cell apoptosis/necrosis, Annexin V and PI flow cytometry (FIG. 5A); assay type: cell-based; settings: for cell death: PLC/PRC/5 and Huh7, 200 μg/ml
Method: (§3) Analysis of Cell Apoptosis/Necrosis: Cells were plated into 24-well plates with the density of 1×10^5 cells/well, and cultured for 48 hours before treatments. The 5 bp polyA:polyU and its analogue, control Poly(A:U) and Poly(I:C) were added at the final concentration of 200 μg/ml into the cell culture supernatants. Cells without treatment were the negative control and the cells treated with 1 μg/ml Lipopolysaccharide (LPS) were the positive control. After incubation for specified time, the cells were harvested and washed with ice-cold PBS, resuspended in 100 μl AnnexinV binding buffer at a concentration of 1×10^5 cells/100 μl and incubated with 2 μl AnnexinV-FITC for 15 minutes at room temperature in the dark. Samples were washed with binding buffer and resuspended again in 100 μl same buffer. After adding 5 μl Propidium Iodide (PI), the samples were diluted with binding buffer and analyzed by flow cytometry (BD Biosciences). Apoptotic cells were identified as an AnnexinV-FITC-positive/PI-negative population.
as §2

[3] = system: human HCC cell line HepG2 and THP-1 cells; test: Cell apoptosis/necrosis, Annexin V and PI flow cytometry (FIG. 5B); assay type: cell-based; settings: for cell death: HepG2 and THP-1, 200 μg/ml
Method: as §3, §2

[4] = system: human HCC lines Huh7, PLC/PRF/5, HepG2, primary liver cancer cells P7NSG59410 and P31NSG55368; test: MTT cytotoxicity and anti-proliferative effect on human liver cancer cells (FIGS. 4A, 4B); assay type: cell-based
Method: Analysis of Growth Curve: Cell lines were seeded at different initial densities in the 96-well plate for 7 days. The medium was changed every day. The viability and metabolic rate of cultured cells was determined daily by assaying the reduction of 3-(4,5-dimethyl thiazol-2-yl)-2,5-diphenyl tetrazolium bromide (MTT) to formazan. After incubation period, MTT was added into each well in final concentration of 0.5 mg/ml, and incubated at the same condition for 4 h. Then the formazan was collected and dissolved in 120 ul DMSO. The absorption was measured at 560-562 nm in an ELISA reader with 620 nm as reference wave.
(§4) Analysis of Cytotoxicity and Anti-Proliferative Effect on Cells: Cytotoxicity was measured by MTT assay. Cells were seeded with the density of 5×10^3 cells/well in 96-well plate and incubated for 48 hours in a cell culture incubator, before being treated with compounds. Each compound was dissolved in RNase and DNase free PBS, and diluted to certain concentrations by the same PBS before being added into the cell culture supernatant. The final concentrations of 5 bps pA:pU were 50, 100, 150 and 200 μg/ml, and the gradient of 5 bps pA:pU s analogue was 50, 100, 300, 500 μg/ml. Poly(A:U) and Poly(I:C) were added at the final concentration of 200 μg/ml as controls. Cells without any treatment were the negative control. After incubation for specified times in the cell culture incubator, MTT reagent was added to the cells for the assay as described above.
as §2, with “bps).” for “bps). Data generated with dsRNA of similar size and chemical composition obtained by fractionation, indicate that low molecular weight dsRNAs (<15 bps) have substantial TNFalpha and cell death inducing properties in human monocytic THP-1 cells.”

[5] = system: mouse liver cancerous cell line BNL 1ME A.7R.1; test: MTT cytotoxicity on mouse liver cancerous cell line (FIG. 4B); assay type: cell-based; settings: dose-effect
Method: as §4

[6] = system: human HCC cell line PLC/PRC/5; test: Cytokine production in HCC cell line PLC/PRC/5; assay type: cell-based; settings: for TNFalpha induction: PLC/PRC/5 cancer cells
Method: as §1, §2

[7] = system: THP-1, PLC/PRC/5, Huh7 and HepG2 cells; test: Cytotoxicity, cell death and apoptosis of higher molecular weight dsRNA and controls (FIGS. 3A, 3B, 5A and 5B); assay type: cell-based
Method: as §4
Analysis of Cell Apoptosis/Necrosis: Cells were plated into 24-well plates with the density of 1×10^5 cells/well, and cultured for 48 hours before treatments. The 5 bp polyA:polyU and its analogue, control Poly(A:U) and Poly(I:C) were added at the final concentration of 200 μg/ml into the cell culture supernatants. Cells without treatment were the negative control and the cells treated with 1 μg/ml Lipopolysaccharide (LPS) were the positive control. […] After adding 5 μl Propidium Iodide (PI), the samples were diluted with binding buffer and analyzed by flow cytometry (BD Biosciences). […]
as §2, with “bps).” for “bps). Data generated with dsRNA of similar size and chemical composition obtained by fractionation, indicate that low molecular weight dsRNAs (<15 bps) have substantial TNFalpha and cell death inducing properties in human monocytic THP-1 cells.”

[8] = system: human primary fibroblasts; test: MTT cytotoxicity on human primary fibroblasts (FIG. 4C); assay type: cell-based
Method: as §4

[9] = system: human liver cancer cell lines Huh7 and HepG2; test: MTT assay of Lipofectamine formulated vs unformulated pA:pU (FIG. 6); assay type: cell-based; settings: Huh7 and HepG2, 24 hour treatment
Method: In one embodiment, 5 bp dsRNAs are formulated using Lipofectamine 2000 to form lipid-based nanoparticles. One exemplary method follows the steps of: 1) in a microfuge tube 1.5 ul of Lipofectamine was diluted to a final volume of 23.5 ul using the appropriate media (per cell type); 2) 25 ul of the appropriate 5 bp dsRNAs analog dilution (to achieve the desired final per well concentration) was added to the diluted Lipofectamine and the mixture was incubated at Room Temperature (RT) for 5 minutes to form lipo-complexes; 3) 250 ul of the appropriate media was added to achieve a final volume of 300 ul; 4) 100 ul of the mixture from step 3 was added to each replicate and the cells was incubated for 24 hours.
Huh7 and HepG2 Cells were plated in a 96 well plate at a density of 2500 cells per well. Cells were incubated for 24 hours. After 24 hours of incubation, the medium was removed and cells were treated with various formulations of 5 bp pA:pU in triplicate in their respective culture mediums with […] 10% FBS. Untreated cells and Dox (10 uM) were used as controls. Cells were incubated for an additional 24 hours. After the 24 hour drug treatment, the medium was removed. Fresh culture medium will be added and the MTT assay was performed using the Life Technologies Vybrant MTT kit. […] The plate was read at 570 nm.

THLE2 cells = test: MTT cytotoxicity on THLE2 cells emulating normal human liver cells (FIG. 4C); assay type: cell-based
Method: as §4

THP-1 cells [10] = test: MTT cytotoxicity on THP-1 cells (FIG. 4C); assay type: cell-based, human; settings: THP-1, dose-effect
Method: as §4, with “After incubation for specified times in the cell culture incubator, MTT reagent was added to the cells for the assay as described above.” left out
as §2, with “bps).” for “bps). Data generated with dsRNA of similar size and chemical composition obtained by fractionation, indicate that low molecular weight dsRNAs (<15 bps) have substantial TNFalpha and cell death inducing properties in human monocytic THP-1 cells.”

[11] = system: cell line emulating normal hepatocytes; test: TNF-alpha production in a cell line emulating normal hepatocytes; assay type: cell-based, human
Method: as §1

[12] = system: PLC/PRC/5 and THP-1 cells; test: TNFalpha and IL-6 induction by higher molecular weight dsRNA and controls (FIGS. 3A, 3B); assay type: cell-based, human
Method: as §1
as §2, with “bps).” for “bps). Data generated with dsRNA of similar size and chemical composition obtained by fractionation, indicate that low molecular weight dsRNAs (<15 bps) have substantial TNFalpha and cell death inducing properties in human monocytic THP-1 cells.”

[13] = Huh7, PLC/PRF/5, HepG2, P7NSG59410, P31NSG55368

Substance: 2O′-methyl analogue of 5 base pairs polyA:polyU
- cytokine production by monocytes (THP-1 cells [1]; relative to native 5 bps pA:pU): attenuated
- cell death [2]: attenuated cytotstatic/cytotoxic profile
- cell death [3]: attenuated cytotstatic/cytotoxic profile
- cell growth inhibition and death inducing properties [4, 13]: significantly attenuated
- cell growth inhibition and death inducing properties ([4]; Huh7, PLC/PRF/5, HepG2, P7NSG59410, P31NSG55368, listed as 2O′-methyl analogue): less potent
- cell growth inhibition and death inducing properties [5]: attenuated cytotstatic/cytotoxic profile
- TNFalpha induction [6]: elevated

Substance: 5 base pairs polyadenylic-polyuridylic acid [5 bps pA:pU]
- primary mechanism of cytotoxicity [7]: cytolysis, with a minimal apoptosis component
- cytotoxic or anti-proliferative effect on fibroblasts [8]: cytotoxic or anti-proliferative effect
- cytotoxic or anti-proliferative effect on fibroblasts ([8]; listed as 5 bp polyA:polyU): sensitive
- biological activity in MTT assay [9]: more biologically active than 15 bps
- cytotoxicity on cells emulating normal human liver cells (THLE2 cells): only a modest effect
- cytotoxicity on cells emulating normal human liver cells (THLE2 cells; listed as 5 bp polyA:polyU): more refractory
- cytotoxicity on cells emulating normal human liver cells (THLE2 cells; listed as low molecular weight dsRNA of 5 bps): more attenuated cytotoxicity profile
- cell growth inhibition and death inducing properties (THP-1 cells [10]; listed as low molecular weight dsRNA (5 bps)): anti-proliferative, pro-death effect
- cell growth inhibition and death inducing properties (THP-1 cells [10]; listed as polyA:polyU of 5 bps): cell growth inhibition and death inducing properties
- TNF-alpha production [11]: blunted
- IL-6 induction (THP-1 cells [1]; THP-1 cells): substantially induced
- TNFalpha induction (THP-1 cells [1]; THP-1 cells): substantially induced
- cell death [2]: induces cell death
- cell death [3]: induces cell death
- cell growth inhibition and death inducing properties [4, 13]: cell growth inhibition and death inducing properties
- cell growth inhibition and death inducing properties [5]: cell growth inhibition and death inducing properties
- TNFalpha induction [6]: substantially induced
- IL-6 induction ([6]; PLC/PRC/5 cells): substantially induced

Substance: polyinosinic:polycytidylic acid [pI:pC, reference compound]
- IL-6 inducing capabilities [12]: negligible
- TNFalpha inducing capabilities [12]: negligible
- cell death or apoptosis ([7]; FIGS. 3A, 3B, 5A and 5B): minimal cell death or apoptosis
- cytotoxicity or anti-proliferative effect ([7]; FIGS. 3A, 3B, 5A and 5B): no cytotoxicity or anti-proliferative effect
- cytotoxicity or anti-proliferative effect ([2]; PLC/PRC/5 and Huh7): no cytotoxicity or anti-proliferative effect
- cell death [2]: minimal cell death or apoptosis
- cytotoxicity or anti-proliferative effect ([3]; HepG2 and THP-1): no cytotoxicity or anti-proliferative effect
- cell death [3]: minimal cell death or apoptosis
